# Patent US12004511B2, “Method of controlling weeds in warm season turfgrass” (SYNGENTA PARTICIPATIONS AG, priority 2017, dated 2024)
# How the values were obtained:
# [1] = system: tropical signalgrass (Urochloa subquadripara); test: Tropical signalgrass control in Bermudagrass plots; assay type: in vivo; settings: 28 days after application
# Source text: Applications of pinoxaden, and pinoxaden plus cloquintocet were applied to various Bermudagrass plots with tropical […] present between August 11 and August 13. The plots were again evaluated 28 days following the application. The following percent weed controls were observed.
# [2] = system: dallisgrass (Paspalum dilatatum); test: Dallisgrass control in bermudagrass; assay type: in vivo; settings: two applications, 28 days after the first application
# Source text: Applications initiated on Oct. 1, 2014.
# initiated in AL for dallisgrass control in bermudagrass on Oct. 28, 2013. Two applications were applied. Percent dallisgrass control was taken 28 days after the first application.
structure (smiles),measurement,setting,value
"CCc1cc(C)cc(CC)c1-c1c(OC(=O)C(C)(C)C)n2n(c1=O)CCOCC2 [Pinoxaden, 8-(2,6-Diethyl-4-methylphenyl)-7-oxo-1,2,4,5-tetrahydro-7H-pyrazolo[1,2-d][1,4,5]oxadiazepin-9-yl-2,2-dimethylpropanoat]",% Control (28 Days AIA),[1]; 70 g active/ha,79.5%
same,% Control (28 Days AIA),[1]; 140 g active/ha,89.7%
same,% Control (28 Days AIA),[2]; 45 g active/ha,82%
same,% Control (28 Days AIA),[2]; 90 g active/ha,85%
